Results on 13 compounds are retold here after patent publication US8003659B2, “Macrocyclic serine protease inhibitors” (Indenix Pharmaceuticals, Inc., priority 2008, dated 2011).

One may read the IC50 as the concentration needed to halve the response being measured. Low values mean greater potency in that assay, high ones weaker potency in that assay. As usually defined, the EC50 is the concentration at which the effect is half-maximal. As usually defined, the CC50 is the concentration at which the toxic effect on the cells reaches its halfway point. A lower CC50 goes with harm at low concentration.

The structures appear in SMILES notation.

In one data set the target is T1, HCV NS3-NS4A protease (Hepatitis C virus genotype 1b, UniProt P26663).
T1 construct: made in house
Kind of data set: HCV Protease Assay (SensoLyte 620 HCV Protease Assay kit). The data set is classed as biochemical. The conditions noted are these: 1.2 nM HCV NS3-NS4A protease, 60 min at room temperature, 5% DMSO. The protocol:
General procedure: Measurement of the inhibitory effect of compounds on HCV protease activity was performed with the SensoLyte™ 620 HCV Protease Assay kit from AnaSpec, Inc. (San Jose, Calif.) under conditions described by the supplier using 1.2 nM HCV NS3-NS4A protease, which was obtained according to Taremi et al. (Protein Science, 1998, 7, 2143-2149). The compounds were tested at a variety of concentrations in assay buffer containing a final DMSO concentration of 5%. Reactions were allowed to proceed for 60 min at room temperature and fluorescence measurements were recorded with a Tecan Infinity Spectrofluorimeter. The IC50 values were determined from the percent inhibition versus concentration data using a sigmoidal non-linear regression analysis based on four parameters with Tecan Magellan software.

The test system of data set [1] is Huh-7 cells containing HCV Con1 subgenomic replicon (GS4.1 cells). Description: HCV Replicon Assay (NS4A ELISA). The data set is classed as cell-based. The conditions noted are these: Hepatitis C virus, Huh-7, 72 hr, NS4A protein by ELISA. The protocol:
General procedure: Huh-7 cells containing HCV Con1 subgenomic replicon (GS4.1 cells) were grown in Dulbecco's Modified Eagle Medium (DMEM) supplemented with 10% fetal bovine serum (FBS), 2 mM L-glutamine, 110 mg/L sodium pyruvate, 1× non-essential amino acids, 100 U/mL penicillin-streptomycin, and 0.5 mg/mL G418 (Invitrogen). For dose-response testing, the cells were seeded in 96-well plates at 7.5×10^3 cells/well in a volume of 50 μL, and incubated at 37° C./5% CO2. Three hours after plating, 50 μL of ten 2-fold serial dilutions of compounds (highest concentration, 75 μM) were added, and cell cultures were incubated at 37° C./5% CO2 in the presence of 0.5% DMSO. Alternatively, compounds were tested at a single concentration of 15 μM. In all cases, Huh-7 cells lacking the HCV replicon served as negative control. The cells were incubated in the presence of compounds for 72 hr after which they were monitored for expression of the NS4A protein by enzyme-linked immunosorbent assay (ELISA). For this, the plates were then fixed for 1 min with acetone/methanol (1:1, v/v), washed twice with phosphate-buffered saline (PBS), 0.1% Tween 20, blocked for 1 hr at room temperature with TNE buffer containing 10% FBS and then incubated for 2 hr at 37° C. with the anti-NS4A mouse monoclonal antibody A-236 (ViroGen) diluted in the same buffer. After washing three times with PBS, 0.1% Tween 20, the cells were incubated 1 hr at 37° C. with anti-mouse immunoglobulin G-peroxidase conjugate in TNE, 10% FBS. After washing as described above, the reaction was developed with O-phenylenediamine (Zymed). The reaction was stopped after 30 min with 2 NH2SO4, and absorbance was read at 492 nm using Sunrise Tecan spectrophotometer. EC50 values were determined from the % inhibition versus concentration data using a sigmoidal non-linear regression analysis based on four parameters with Tecan Magellan software. When screening at a single concentration, the results were expressed as % inhibition at 15 μM.
A general note: A replicon is a self-replicating genome or part of one, used to study replication in cells.

Data set [2] in a line: Cytotoxicity evaluation (Cell Titer 96 AQueous One Solution Cell Proliferation Assay). The data set is classed as cell-based. The conditions noted are these: human; GS4.1 cells, cellular viability. How it is done:
For cytotoxicity evaluation, GS4.1 cells were treated with compounds as described above and cellular viability was monitored using the Cell Titer 96 AQueous One Solution Cell Proliferation Assay (Promega). CC50 values were determined from the % cytotoxicity versus concentration data with Tecan Magellan software as described above.

T1 sequence (P26663 1027-1208): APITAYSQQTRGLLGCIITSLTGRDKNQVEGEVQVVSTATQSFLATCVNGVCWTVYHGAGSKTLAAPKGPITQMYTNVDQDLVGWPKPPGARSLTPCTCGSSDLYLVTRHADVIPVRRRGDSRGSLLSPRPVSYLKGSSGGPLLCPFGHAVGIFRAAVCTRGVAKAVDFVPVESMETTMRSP

`COc1ccc2c(O[C@H]3C[C@H]4C(=O)N(C)CCCC/C=C\[C@@H]5C[C@@]5(C(=O)NS(=O)(=O)C5CC5)NC(=O)N4C3)cc(-c3nc(C4CC4)cs3)nc2c1Cl` [AC1, (Z)-(4R,6S,15S,17S)-[17-[8-chloro-7-methoxy-2-(4-cyclopropylthiazol-2-yl)quinolin-4-yloxy]-13-N-methyl-2,14-dioxo-1,3,13-triazatricyclo-[13.3.0.0]octadec-7-en-4-yl]carbonyl-(cyclopropyl)sulfonamide] displayed an IC50 against HCV NS3-NS4A protease of less than 1000 nM. Also, the EC50 in data set [1] was less than 1000 nM. For the same compound, in data set [2], the CC50 was 10000 to 75000 nM.

Compound `COc1ccc2c(O[C@H]3C[C@H]4C(=O)N(C)CCCC/C=C\[C@@H]5C[C@@]5(C(=O)NS(=O)(=O)C5CC5)NC(=O)N4C3)cc(-c3nc(C4CCC4)cs3)nc2c1Cl` [AC2, (Z)-(4R,6S,15S,17S)-[17-[8-chloro-7-methoxy-2-(4-cyclobutylthiazol-2-yl)quinolin-4-yloxy]-13-N-methyl-2,14-dioxo-1,3,13-triazatricyclo-[13.3.0.0]octadec-7-en-4-yl]carbonyl-(cyclopropyl)sulfonamide] showed an IC50 at HCV NS3-NS4A protease of less than 1000 nM. Also, in data set [1], the EC50 was less than 1000 nM. Moreover, the CC50 in data set [2] was 10000 to 75000 nM.

`COc1ccc2c(O[C@H]3C[C@H]4C(=O)N(C)CCCC/C=C\[C@@H]5C[C@@]5(C(=O)NS(=O)(=O)C5(C)CC5)NC(=O)N4C3)cc(-c3nc(C4CCC4)cs3)nc2c1Cl` [AC3, (Z)-(4R,6S,15S,17S)-[17-[8-chloro-7-methoxy-2-(4-cyclobutylthiazol-2-yl)quinolin-4-yloxy]-13-N-methyl-2,14-dioxo-1,3,13-triazatricyclo-[13.3.0.0]octadec-7-en-4-yl]carbonyl-(1-methylcyclopropyl)sulfonamide] yielded an IC50 at HCV NS3-NS4A protease of less than 1000 nM. The compound also displayed an EC50 in data set [1] of less than 1000 nM. The CC50 in data set [2] was greater than 75000 nM.

On HCV NS3-NS4A protease, `C=Cc1csc(-c2cc(O[C@H]3C[C@H]4C(=O)N(C)CCCC/C=C\[C@@H]5C[C@@]5(C(=O)NS(=O)(=O)C5(C)CC5)NC(=O)N4C3)c3ccc(OC)c(Cl)c3n2)n1` [AH, (Z)-(4R,6S,15S,17S)-[17-[8-chloro-7-methoxy-2-(4-vinylthiazol-2-yl)quinolin-4-yloxy]-13-N-methyl-2,14-dioxo-1,3,13-triazatricyclo-[13.3.0.0]octadec-7-en-4-yl]carbonyl(1-methyl-cyclopropyl)sulfonamide] gave an IC50 of less than 1000 nM. The compound further gave an EC50 in data set [1] of less than 1000 nM. In data set [2], this compound came in with a cytotoxic concentration (CC50) of 10000 to 75000 nM.

Consider `COc1ccc2c(O[C@H]3C[C@H]4C(=O)N(C)CCCC/C=C\[C@@H]5C[C@@]5(C(=O)NS(=O)(=O)C5CC5)NC(=O)N4C3)cc(-c3nc(C)cs3)nc2c1Cl` [AN, (Z)-(4R,6S,15S,17S)-[17-[8-chloro-7-methoxy-2-(4-methylthiazol-4-yl)quinolin-4-yloxy]-13-N-methyl-2,14-dioxo-1,3,13-triazatricyclo-[13.3.0.0]octadec-7-en-4-yl]carbonyl-(cyclopropyl)sulfonamide], for which the IC50 on HCV NS3-NS4A protease was less than 1000 nM. In addition, the EC50 in data set [1] was less than 1000 nM. The compound also showed a CC50 in data set [2] of 10000 to 75000 nM.

In the case of `COc1ccc2c(O[C@H]3C[C@H]4C(=O)N(C)CCCC/C=C\[C@@H]5C[C@@]5(C(=O)NS(=O)(=O)C5(C)CC5)NC(=O)N4C3)cc(-c3nc(C(C)C)cs3)nc2c1` [Compound 56a, (Z)-(4R,6S,15S,17S)-[17-[7-methoxy-2-(4-isopropylthiazol-2-yl)quinolin-4-yloxy]-13-N-methyl-2,14-dioxo-1,3,13-triazatricyclo-[13.3.0.0]octadec-7-en-4-yl]carbonyl(1-methyl-cyclopropyl)sulfonamide], the 50% inhibitory concentration (IC50) against HCV NS3-NS4A protease was less than 1000 nM. This compound returned an EC50 in data set [1] of less than 1000 nM. In addition, the cytotoxic concentration (CC50) in data set [2] is greater than 75000 nM.

The compound `COc1ccc2c(O[C@H]3C[C@H]4C(=O)N(C)CCCC/C=C\[C@@H]5C[C@@]5(C(=O)NS(=O)(=O)C5(C)CC5)NC(=O)N4C3)cc(-c3nc(C(C)C)cs3)nc2c1F` [Compound 56c, (Z)-(4R,6S,15S,17S)-[17-[8-fluoro-7-methoxy-2-(4-isopropylthiazol-2-yl)quinolin-4-yloxy]-13-N-methyl-2,14-dioxo-1,3,13-triazatricyclo[13.3.0.0]octadec-7-en-4-yl]carbonyl(1-methyl-cyclopropyl)sulfonamide] showed an IC50 at HCV NS3-NS4A protease of less than 1000 nM. Besides, the EC50 in data set [1] was less than 1000 nM. The compound also showed a CC50 in data set [2] greater than 75000 nM.

In the case of `COc1cc(OC)c2c(O[C@H]3C[C@H]4C(=O)N(C)CCCC/C=C\[C@@H]5C[C@@]5(C(=O)NS(=O)(=O)C5(C)CC5)NC(=O)N4C3)cc(-c3nc(C(C)C)cs3)nc2c1` [Compound 56e, (Z)-(4R,6S,15S,17S)-[17-[5,7-dimethoxy-2-(4-isopropylthiazol-2-yl)quinolin-4-yloxy]-13-N-methyl-2,14-dioxo-1,3,13-triazatricyclo[13.3.0.0]octadec-7-en-4-yl]carbonyl(1-methyl-cyclopropyl)sulfonamide], the half-inhibitory concentration (IC50) on HCV NS3-NS4A protease is less than 1000 nM. For the same compound, the EC50 in data set [1] lay within 1000 to 10000 nM. This compound also showed a CC50 in data set [2] greater than 75000 nM.

`COc1cc(C)c2nc(-c3nc(C(C)C)cs3)cc(O[C@H]3C[C@H]4C(=O)N(C)CCCC/C=C\[C@@H]5C[C@@]5(C(=O)NS(=O)(=O)C5(C)CC5)NC(=O)N4C3)c2c1` [Compound 56f, (Z)-(4R,6S,15S,17S)-[17-[6-methoxy-8-methyl-2-(4-isopropylthiazol-2-yl)quinolin-4-yloxy]-13-N-methyl-2,14-dioxo-1,3,13-triazatricyclo[13.3.0.0]octadec-7-en-4-yl]carbonyl(1-methyl-cyclopropyl)sulfonamide] gave a half-inhibitory concentration (IC50) on HCV NS3-NS4A protease of less than 1000 nM. The EC50 in data set [1] is less than 1000 nM. Moreover, the CC50 in data set [2] is greater than 75000 nM.

`COc1cc2c(O[C@H]3C[C@H]4C(=O)N(C)CCCC/C=C\[C@@H]5C[C@@]5(C(=O)NS(=O)(=O)C5(C)CC5)NC(=O)N4C3)cc(-c3nc(C(C)C)cs3)nc2cc1Cl` [Compound 56g, (Z)-(4R,6S,15S,17S)-[17-[7-chloro-6-methoxy-2-(4-isopropylthiazol-2-yl)quinolin-4-yloxy]-13-N-methyl-2,14-dioxo-1,3,13-triazatricyclo[13.3.0.0]octadec-7-en-4-yl]carbonyl(1-methyl-cyclopropyl)sulfonamide]: the IC50 against HCV NS3-NS4A protease is less than 1000 nM. Moreover, the EC50 in data set [1] was less than 1000 nM. The CC50 in data set [2] is greater than 75000 nM.

In the case of `COc1ccc2c(O[C@H]3C[C@H]4C(=O)N(C)CCCC/C=C\[C@@H]5C[C@@]5(C(=O)NS(=O)(=O)C5(C)CC5)NC(=O)N4C3)cc(-c3nc(C(C)C)cs3)nc2c1Br` [Compound 56h, (Z)-(4R,6S,15S,17S)-[17-[8-bromo-7-methoxy-2-(4-isopropylthiazol-2-yl)quinolin-4-yloxy]-13-N-methyl-2,14-dioxo-1,3,13-triazatricyclo[13.3.0.0]octadec-7-en-4-yl]carbonyl(1-methyl-cyclopropyl)sulfonamide], the IC50 at HCV NS3-NS4A protease was less than 1000 nM. This compound also yielded an EC50 in data set [1] of less than 1000 nM. In data set [2], the CC50 is greater than 75000 nM.

In turn, `COc1ccc2c(O[C@H]3C[C@H]4C(=O)N(C)CCCC/C=C\[C@@H]5C[C@@]5(C(=O)NS(=O)(=O)C5CC5)NC(=O)N4C3)cc(-c3nc(C(C)C)cs3)nc2c1C` [Compound 62b, (Z)-(4R,6S,15S,17S)-[17-[7-methoxy-8-methyl-2-(4-isopropylthiazol-2-yl)quinolin-4-yloxy]-13-N-methyl-2,14-dioxo-1,3,13-triazatricyclo[13.3.0.0]octadec-7-en-4-yl]carbonyl(cyclopropyl)sulfonamide] yielded an IC50 at HCV NS3-NS4A protease of less than 1000 nM. This compound also had an EC50 in data set [1] of less than 1000 nM. In data set [2], this compound yielded a CC50 greater than 75000 nM.

At HCV NS3-NS4A protease, `COc1cc(C)c2nc(-c3nc(C(C)C)cs3)cc(O[C@H]3C[C@H]4C(=O)N(C)CCCC/C=C\[C@@H]5C[C@@]5(C(=O)NS(=O)(=O)C5CC5)NC(=O)N4C3)c2c1` [Compound 62f, (Z)-(4R,6S,15S,17S)-[17-[6-methoxy-8-methyl-2-(4-isopropylthiazol-2-yl)quinolin-4-yloxy]-13-N-methyl-2,14-dioxo-1,3,13-triazatricyclo[13.3.0.0]octadec-7-en-4-yl]carbonyl(cyclopropyl)sulfonamide] displayed an IC50 of less than 1000 nM. In data set [1], this compound came in with an EC50 of less than 1000 nM. This compound also gave a CC50 in data set [2] greater than 75000 nM.
